“And” between values parts separate entries of the source, which are not always exact repeats. Identical values can stand only once. Like-named read-outs stand apart in the source and are kept apart here.
How the values were obtained:
MMP-8 = conditions: for MMP-8 detected in the root canals: pooled data
Source text: 10 patients (11 teeth), with noncontributory medical histories, suffering from apical periodontitis, were selected for the collection of the root canal exudate samples. […] The sample collection was done with the approval of Ethical Committee of Helsinki University Faculty of Medicine, and with the patient's informed consent. The samples were collected during three consecutive appointments with two-week intervals, during which the root canal treatment was completed.
Primary access to the pulp and root canals was made according to regular treatment protocol. The instrumentation of the root canal was started with size 20 or 25 ISO file. X-ray was taken to determine the preparation length. At that time point, a sterile paper point was inserted into the root canal up to the preparation length for two minutes to absorb exudate from the root canal and periapical lesion. The root canals were then instrumented according to standard root canal treatment protocol. Finally, CaOH2 paste was inserted into the canal, and the access cavity was sealed.
After two weeks the root canals were reopened. After quick drying of the canals, a sterile paper point was inserted into the canal for two min for the sample collection. If the canal appeared dry, a drop of sterile saline was inserted to allow the absorption of the sample into the paper point. The root canal was then rinsed, dried and CaOH2 paste was inserted into the canal. After two weeks the procedure for the sample collection was repeated, and the root canals were filled with gutta percha and sealer in normal fashion.
Concentration of MMP-8 in the samples was determined from the elution buffer by a time-resolved immunofluorescence assay as described previously (Hanemaaijer et al., 1997). The monoclonal MMP-8 specific 8708 and 8706 antibodies were used as a catching antibody and tracer antibody, respectively. The tracer antibody was labeled using europium chelate. The assay buffer contained 20 mM Tris-HCl, pH 7.5, 0.5 M NaCl, 5 mM CaCl2, 50 μM ZnCl2, 0.5% bovine serum albumin, 0.5% sodium azide, and 20 mg/l DTPA. Samples were diluted in assay buffer and incubated for one h, followed by incubation for one h with tracer antibody. Enhancement solution was added, and after 5 min fluorescence was measured using a 1234 Delfia Research Fluorometer (Wallac, Turku, Finland).
Kruskall-Wallis 1-way ANOVA was used to analyze the degree of difference in the MMP-8 levels between the different appointments within each sample site.

[1] = obturated after one week of intracanal disinfection; cited from earlier work
bacteria in the canals = conditions: after 1-2 week medication, in most cases; cited from earlier work

Compound: [Ca+2].[OH-].[OH-] [Ca(OH)2, calcium hydroxide]
- levels of MMP-8 in the exudate (MMP-8; patients with initially high levels (over 1000 ng/ml), second appointment, after two weeks of treatment): undetectable levels
- MMP-8 detected in the root canals (MMP-8; necrotic teeth, after mechanical preparation and first local medication (2nd visit)): a relatively high amount of MMP-8 was detected
- MMP-8 detected in the root canals (MMP-8; after renewal of the local medication for fortnight (3rd visit)): no longer detected
- levels of MMP-8 in the root canal samples (MMP-8; two other patients with initial value of 0, second appointment): 100 to 1000 ng/mL
- teeth that failed to show any healing in the periapical lesion area after one year [1]: 26% and 24%
- cultivable bacteria in the canals (bacteria in the canals): no cultivable bacteria
